This is an account of results in ChEMBL document CHEMBL5380800, “Discovery of Small-Molecule Autophagy Inhibitors by Disrupting the Protein-Protein Interactions Involving Autophagy-Related 5” (J Med Chem, 2023).

The subject of series [1] is COS-7. Briefly: Inhibition of autophagy in African green monkey COS-7 cells at 20 uM by flow cytometry analysis relative to control. To be noted: Chlorocebus aethiops. The series is classed as functional. (In flow cytometry, cells or beads pass a laser one at a time.)
Series [2] is described as follows: Inhibition of ATG5-ATG16L1 (unknown origin) protein protein interaction expressed in Escherichia coli BL21 (DE3) by HTRF method. Set-up: species or system Homo sapiens. For orientation: TR-FRET usually uses a lanthanide donor and a delayed reading to cut background.
Another series deals with U-937. Briefly: Downregulation of LC3-II protein level in human U-937 cells at 5 to 40 uM incubated for 6 hrs in presence of rapamycin/chloroquine by Western blot analysis. The series is classed as functional, cell-based. The following applies: dose 5-40 µM. (In general: Immunoblotting shows a protein as a band on a membrane.)
Series [3] deals with COS-7. Briefly: Downregulation of LC3-II protein level in African green monkey COS-7 cells at 1.25 to 20 uM incubated for 6 hrs by Western blot analysis. The following applies: Chlorocebus aethiops, dose 1.25-20 µM. The series is classed as functional, cell-based.
Series [4] has as its system COS-7. Kind of series: Inhibition of autophagy in African green monkey COS-7 cells assessed as effect on LC3 level by flow cytometry analysis. The series is classed as toxicity, cell-based. To be noted: chlorocebus aethiops, cos-7, 40 µM.
In another series the test system is THP-1. Kind of series: Downregulation of LC3-II protein level in human THP-1 cells at 5 to 40 uM incubated for 6 hrs in presence of rapamycin/chloroquine by Western blot analysis. The series is classed as functional, cell-based. To be noted: dose 5-40 µM.
Series [5] can be described thus: Inhibition of ATG5-TECAIR (unknown origin) protein protein interaction expressed in Escherichia coli BL21 (DE3) by HTRF method. Set-up: species or system Homo sapiens.
Series [6] relates to COS-7. Briefly: Inhibition of autophagy in African green monkey COS-7 cells assessed as effect on LC3 level at upto 40 uM by flow cytometry analysis. The series is classed as functional, cell-based. The following applies: Chlorocebus aethiops.

Structures are written as SMILES. Activity calls are given as the source filed them. The calls are words filed in the database; no cut-off is given here.

For the compound `O=C(O)c1ccc(N2C(=O)/C(=C/c3ccc(-c4ccc([N+](=O)[O-])cc4)o3)C=C2c2ccccc2)cc1`, at 20 µM the inhibition with COS-7 [1] was 7.16%. Besides, the IC50 in series [2] (read-out: IC50) amounted to 1100 nM; in series [5] (read-out: IC50), 1700 nM. The outcome in the series with U-937, in the series on COS-7 [3] and with THP-1 was Active. In the series with COS-7 [4], the “inhibition (INH)” value is reported as “Dose-Dependent Effect”.

Regarding `Cn1cnc(N)c2ncnc1-2`, the inhibition entry in the series with COS-7 [6] is “inactive”.

Turning to `CCN(CCO)CCCC(C)Nc1ccnc2cc(Cl)ccc12` (configuration not stated), the inhibition result with COS-7 [6] is “inactive”.

`COC(=O)CCCCN1C(=O)/C(=C/c2ccc(-c3ccc([N+](=O)[O-])cc3)o2)C=C1c1ccccc1` gave an inhibition at 20 µM in the series on COS-7 [1] of 16.6%. Besides, the IC50 entry in series [2] and in series [5] was “Not Active” each time.

The term inhibition denotes how much of the control response was suppressed. A word on the IC50: it is the point on the concentration scale where inhibition reaches its midpoint.
